According to patent US20210040089A1, “KRAS MUTANT PROTEIN INHIBITORS” (Jacobio Pharmaceuticals Co., Ltd., priority 2019, published 2021):

Key:
KRAS G12C = biological target: T1, KRAS G12C (Homo sapiens, UniProt P01116, G12C); experiment: SOS1 catalyzed nucleotide exchange assay (TR-FRET); format: biochemical; conditions: GDP-loaded HIS-KRAS(G12C), 1 hour pre-incubation with compound
T1 construct: HIS-KRAS (G12C, aa 2-185, Sino biological); purchased Sino biological
Protocol: 1. SOS1 Catalyzed Nucleotide Exchange Assay
HIS-KRAS (G12C, aa 2-185, Sino biological) was diluted to […] EDTA buffer (20 mM HEPES, pH 7.4, 50 mM NaCl, 10 mM EDA, 0.01% (v/v) Tween-20) and incubated for 30 min at 25° C. The EDTA pretreated HIS-KRAS(G12C) was diluted to 12 nM in assay buffer (25 mM HEPES, pH 7.4, 120 mM NaCl, 5 mM MgCl2, 1 mM DTI, 0.01% (v/v) Tween 20, 0.1% (w/v) BSA) containing 120 nM GDP(Sigma) and Mab Anti 6HIS-Tb cryptate Gold(Cisbio) and incubated for 1 hour at 25° C. to prepare GDP-loaded HIS-KRAS(G12C). The GDP-loaded HIS-KRAS(G12C) was pre-incubation with diluted compounds in a 384-well plate (Greiner) for 1 hour, then purified SOS 1ExD (Flag tag, aa 564-1049) and BODIPY™FL GTP (Invitrogen) were added to the assay wells (Final concentration: 3 nM HIS-KRAS(G12C), 2 μM SOS1 ExD, 80 nM BODIPY™FL GTP, 21 ng/mL MAb Anti 6HS-Tb cryptate Gold) and incubated for 4 hours at 25° C. TR-FRET signals were then read on Tecan Spark multimode microplate reader. The parameters were F486: Excitation 340 (35) nm, Emission 486 (10) nm, Lag time 100 μs, Integration time […]; F515: Excitation 340 (35) nm, Emission 515 (10) nm, Lag time […], Integration time 200 s. TR-FRET ratios for each individual wells were calculated by equation: TR-FRET ratio=(Signal F515/Signal F486)*10000. Then the data were analyzed using a 4-parameter logistic model to calculate IC50 values.

[1] = tested on: Phospho-ERK1/2(THR202/TYR204) in NCI-H358 cells express KRAS G12C; experiment: Phospho-ERK1/2(THR202/TYR204) HTRF assay; format: cell-based; conditions: Homo sapiens; NCI-H358, 2 hours incubation; read-out: p-ERK inhibition in NCI-H358 IC50
Protocol: NCI-H358 cells express KRAS G12C were cultured in RPMI 1640 medium (Gibco) containing 10% fetal bovine serum (Gibco). Cells in culture medium were plated in 96-well plates at a concentration of 40,000 cells/well and allowed to attach overnight. The next day, culture medium was removed and added compounds diluted in assay medium (RPMI 1640, 0.1% EFBS). After 2 hours incubation in a 37° C./5% CO2 cell incubator, the assay medium was removed, then 50 μL of 1× supplemented lysis buffer (Cisbio) was added and the plates were incubated at 25° C. for 45 min with shaking. 10 μL of cell lysates from the 96-well plates were transferred to a 384-well plate (Greiner) containing 2.5 µL/well HTRF® pre-mixed antibodies (Cisbio 64AERPEH).
Incubate 4 hours at 25° C. and then read HTRF signals on Tecan Spark multimode microplate reader. The data were analyzed using a 4-parameter logistic model to calculate IC50 values.

[2] = tested on: NCI-H358 cells express KRAS G12C; experiment: Cell growth inhibition assay (CCK-8); format: cell-based; conditions: Homo sapiens, 144 h; NCI-H358, 6 days incubation
Protocol: 3. Cell Growth inhibition assay
NCI-H358 cells express KRAS G12C were cultured in RPMI 1640 medium (Gibco) containing 10% fetal bovine serum (Gibco). Cells in culture medium were plated in 96-well plates at a concentration of 3000 cells/well ([…]) and allowed to attach overnight. The next day, compounds were diluted in culture medium and added to the plates. After 6 days incubation in a 37° C./5% CO2 cell incubator, the medium was removed, then 100 μL of 1×CCK-8 (MCE) in culture medium was added in each well. The plates were incubated 1.5-2 hours in a 37° C./5% CO2 cell incubator. OD450 signals were read on Tecan Spark multimode microplate reader and analyzed using a 4-parameter logistic model to calculate IC50 values.

T1 sequence (P01116 2-185 isoform P01116-2 G12C): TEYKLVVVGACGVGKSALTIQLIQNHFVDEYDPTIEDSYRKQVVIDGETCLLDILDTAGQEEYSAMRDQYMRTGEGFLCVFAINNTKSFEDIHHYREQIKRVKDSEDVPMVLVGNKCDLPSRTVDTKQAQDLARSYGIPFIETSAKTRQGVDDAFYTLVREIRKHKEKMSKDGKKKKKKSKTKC

C=CC(=O)N1CCN(c2nc(OCC3(CN(C)C)CC3)nc3c2CCN(c2c(C)ccc4[nH]ncc24)C3)CC1CC#N (stereo not shown) [Compound 3, 2-(1-acryloyl-4-(2-((1-((dimethylamino)methyl)cyclopropyl)methoxy)-7-(5-methyl-1H-indazol-4-yl)-5,6,7,8-tetrahydropyrido[3,4-d]pyrimidin-4-yl)piperazin-2-yl)acetonitrile] gave an IC50 (KRAS G12C) of 12.1 nM, an IC50 [1] of 453 nM and an IC50 [2] of 408 nM.
Compound C=CC(=O)N1CCN(c2nc(OCC3(CN4CCCC4)CC3)nc3c2CCN(c2cccc4ccccc24)C3)CC1CC#N (stereo not shown) [Compound 4, 2-(1-acryloyl-4-(7-(naphthalen-1-yl)-2-((1-(pyrrolidin-1-ylmethyl)cyclopropyl)methoxy)-5,6,7,8-tetrahydropyrido[3,4-d]pyrimidin-4-yl)piperazin-2-yl)acetonitrile] has an IC50 (KRAS G12C) of 18.9 nM, an IC50 [1] of 97.7 nM and an IC50 [2] of 93.3 nM.
In the case of C=CC(=O)N1CCN(c2nc(OCC3CCCC(N(C)C)C3)nc3c2CCN(c2cccc4cccc(C)c24)C3)CC1CC#N (stereo not shown) [Compound 5, 2-(1-acryloyl-4-(2-((3-(dimethylamino)cyclohexyl)methoxy)-7-(8-methylnaphthalen-1-yl)-5,6,7,8-tetrahydropyrido[3,4-d]pyrimidin-4-yl)piperazin-2-yl)acetonitrile], the IC50 (KRAS G12C) is reported as 19.6 nM, the IC50 [1] is reported as 330 nM and the IC50 [2] is reported as 174 nM.
Work on C=CC(=O)N1CCN(c2nc(OCC3CCCC(N(C)C)C3)nc3c2CCN(c2ccccc2C(F)(F)F)C3)CC1CC#N (stereo not shown) [Compound 6, 2-(1-acryloyl-4-(2-((3-(dimethylamino)cyclohexyl)methoxy)-7-(2-(trifluoromethyl)phenyl)-5,6,7,8-tetrahydropyrido[3,4-d]pyrimidin-4-yl)piperazin-2-yl)acetonitrile] yielded an IC50 (KRAS G12C) of 178 nM, an IC50 [1] of 592 nM and an IC50 [2] of 580 nM.
With C=CC(=O)N1CCN(c2nc(OCC3CC(N(C)C)C3)nc3c2CCN(c2cccc4ccccc24)C3)CC1CC#N (stereo not shown) [Compound 8, 2-(1-acryloyl-4-(2-((3-(dimethylamino)cyclobutyl)methoxy)-7-(naphthalen-1-yl)-5,6,7,8-tetrahydropyrido[3,4-d]pyrimidin-4-yl)piperazin-2-yl)acetonitrile] the IC50 (KRAS G12C) was 408 nM, the IC50 [1] was 769 nM and the IC50 [2] was 3470 nM.
With C=CC(=O)N1CCN(c2nc(OC3CCCC(N(C)C)C3)nc3c2CCN(c2cccc4ccccc24)C3)CC1CC#N (stereo not shown) [Compound 10, 2-(1-acryloyl-4-(2-((3-(dimethylamino)cyclohexyl)oxy)-7-(naphthalen-1-yl)-5,6,7,8-tetrahydropyrido[3,4-d]pyrimidin-4-yl)piperazin-2-yl)acetonitrile] the IC50 (KRAS G12C) was 1740 nM, the IC50 [1] was 720 nM and the IC50 [2] was 940 nM.
In the case of C=CC(=O)N1CCN(c2nc(OCC3(N(C)C)CC3)nc3c2CCN(c2cccc4ccccc24)C3)CC1CC#N (stereo not shown) [Compound 12, 2-(1-acryloyl-4-(2-((1-(dimethylamino)cyclopropyl)methoxy)-7-(naphthalen-1-yl)-5,6,7,8-tetrahydropyrido[3,4-d]pyrimidin-4-yl)piperazin-2-yl)acetonitrile], the IC50 (KRAS G12C) is reported as 176 nM, the IC50 [1] is reported as 518 nM and the IC50 [2] is reported as 645 nM.
C=CC(=O)N1CCN(c2nc(OCC3CCCC3N(C)C)nc3c2CCN(c2cccc4ccccc24)C3)CC1CC#N (stereo not shown) [Compound 14, 2-(1-acryloyl-4-(2-((2-(dimethylamino)cyclopentyl)methoxy)-7-(naphthalen-1-yl)-5,6,7,8-tetrahydropyrido[3,4-d]pyrimidin-4-yl)piperazin-2-yl)acetonitrile] was tested, and the IC50 (KRAS G12C) was 54.1 nM, the IC50 [1] was 234 nM and the IC50 [2] was 217 nM.
Work on C=CC(=O)N1CCN(c2nc(OCC3CCCC(N(C)C)C3)nc3c2CCN(c2cccc4ccccc24)C3)CC1CC#N (stereo not shown) [Compound 15, 2-(1-acryloyl-4-(2-((3-(dimethylamino)cyclohexyl)methoxy)-7-(naphthalen-1-yl)-5,6,7,8-tetrahydropyrido[3,4-d]pyrimidin-4-yl)piperazin-2-yl)acetonitrile] yielded an IC50 (KRAS G12C) of 333 nM, an IC50 [1] of 876 nM and an IC50 [2] of 497 nM.
Work on C=CC(=O)N1CCN(c2nc(OCC3CCC(N(C)C)C3)nc3c2CCN(c2cccc4ccccc24)C3)CC1CC#N (stereo not shown) [Compound 17, 2-(1-acryloyl-4-(2-((3-(dimethylamino)cyclopentyl)methoxy)-7-(naphthalen-1-yl)-5,6,7,8-tetrahydropyrido[3,4-d]pyrimidin-4-yl)piperazin-2-yl)acetonitrile] yielded an IC50 (KRAS G12C) of 83.6 nM, an IC50 [1] of 312 nM and an IC50 [2] of 299 nM.
C=CC(=O)N1CCN(c2nc(OCC3CCCCC3N(C)C)nc3c2CCN(c2cccc4ccccc24)C3)CC1CC#N (stereo not shown) [Compound 18, 2-(1-acryloyl-4-(2-((2-(dimethylamino)cyclohexyl)methoxy)-7-(naphthalen-1-yl)-5,6,7,8-tetrahydropyrido[3,4-d]pyrimidin-4-yl)piperazin-2-yl)acetonitrile] was tested, and the IC50 (KRAS G12C) was 428 nM, the IC50 [1] was 879 nM and the IC50 [2] was 507 nM.
For C=CC(=O)N1CCN(c2nc(OCC3(N(C)C)CC3)nc3c2CCN(c2cccc4cccc(C)c24)C3)CC1CC#N (stereo not shown) [Compound 20, 2-(1-acryloyl-4-(2-((1-(dimethylamino)cyclopropyl)methoxy)-7-(8-methylnaphthalen-1-yl)-5,6,7,8-tetrahydropyrido[3,4-d]pyrimidin-4-yl)piperazin-2-yl)acetonitrile], the IC50 (KRAS G12C) was 19.4 nM, the IC50 [1] was 127 nM and the IC50 [2] was 102 nM.
C=CC(=O)N1CCN(c2nc(OC[C@@H]3CC[C@H](N(C)C)C3)nc3c2CCN(c2cccc4cccc(C)c24)C3)CC1CC#N (stereo partly drawn) [Compound 22, 2-(1-acryloyl-4-(2-(((1R,3S)-3-(dimethylamino)cyclopentyl)methoxy)-7-(8-methylnaphthalen-1-yl)-5,6,7,8-tetrahydropyrido[3,4-d]pyrimidin-4-yl)piperazin-2-yl)acetonitrile] gave an IC50 (KRAS G12C) of 10.7 nM, an IC50 [1] of 96.6 nM and an IC50 [2] of 65.2 nM.
C=CC(=O)N1CCN(c2nc(OCC3CCCC3N(C)C)nc3c2CCN(c2cccc4cccc(C)c24)C3)CC1CC#N (stereo not shown) [Compound 23, 2-(1-acryloyl-4-(2-((2-(dimethylamino)cyclopentyl)methoxy)-7-(8-methylnaphthalen-1-yl)-5,6,7,8-tetrahydropyrido[3,4-d]pyrimidin-4-yl)piperazin-2-yl)acetonitrile] gave an IC50 (KRAS G12C) of 9.45 nM, an IC50 [1] of 112 nM and an IC50 [2] of 66.8 nM.
C=CC(=O)N1CCN(c2nc(OCC3CCCC3N(C)C)nc3c2CCN(c2cccc(C)c2C)C3)CC1CC#N (stereo not shown) [Compound 28, 2-(1-acryloyl-4-(2-((2-(dimethylamino)cyclopentyl)methoxy)-7-(2,3-dimethylphenyl)-5,6,7,8-tetrahydropyrido[3,4-d]pyrimidin-4-yl)piperazin-2-yl)acetonitrile] was tested, and the IC50 (KRAS G12C) was 24.1 nM and the IC50 [2] was 138 nM.
C=CC(=O)N1CCN(c2nc(OCC3(CN4CCOCC4)CC3)nc3c2CCN(c2cccc(Cl)c2C(F)(F)F)C3)CC1CC#N (stereo not shown) [Compound 40, 2-(1-acryloyl-4-(7-(3-chloro-2-(trifluoromethyl)phenyl)-2-((1-(morpholinomethyl)cyclopropyl)methoxy)-5,6,7,8-tetrahydropyrido[3,4-d]pyrimidin-4-yl)piperazin-2-yl)acetonitrile] showed an IC50 (KRAS G12C) of 23.8 nM and an IC50 [2] of 360 nM.
